Experiments:
db/db mice = experiment: Oral glucose tolerance test; assay type: in vivo; settings: fasted db/db mice, 2 g/kg glucose orally 30 minutes after the substance
Description: Oral Glucose Tolerance Test
Fasted db/db mice 7 to 9 weeks old (Janvier, France) are weighed and blood is taken from the tip of the tail. This blood is used for the first measurement of glucose on the basis of which the animals are randomised and divided into groups. The test substance to be tested may be given either orally or i.p. as a suspension in 0.5% Natrosol. 30 minutes after the administration of the substance the animals are given orally 2 g/kg glucose in a volume of 0.1 ml/100 g body weight dissolved in NaCl solution. Subsequently, the glucose values are determined from the tail blood using a glucometer (Ultra OneTouch, Lifescan) at specific time intervals [30, 60, 120 and 180 minutes after oral administration of the glucose].

mice = experiment: Tolerability after oral administration (animals' behaviour); assay type: in vivo; settings: oral administration of 10 mg/kg

## CC(=O)c1ccc2c(c1)/C(=C(/NCCC(=O)N1CCN(C)CC1)c1ccccc1)C(=O)N2 [Example 1.009]
db/db mice
  activity in the oral glucose tolerance test: significant activity
mice
  tolerability: changes in the animals' behaviour: no changes were observed in the animals' behaviour

Source: patent US7560480B2, “Alkyl-containing 5-acylindolinones, the preparation thereof and their use as medicaments” (Boehringer Ingelheim International GmbH, priority 2004, dated 2009)
